# Data taken from US20100087496A1, “NOVEL CINNAMIC AMIDE DERIVATIVES USEFUL AS ION CHANNEL MODULATORS” (NeuroSearch A/S, priority 2006, published 2010).
# Biological target: T1, BK channels heterologously expressed in Xenopus laevis oocytes (Homo sapiens, UniProt Q12791)
# T1 construct: expressed in transfected cells; host or cells: Xenopus laevis oocytes
# Assay: BK channel opening activity, two-electrode voltage clamp in Xenopus laevis oocytes
# Assay type: cell-based
# Details: step from −40 mV to +30 mV
# Description: In this example the BK channel opening activity of three cinnamic amide derivatives representative of the invention, i.e. Compound 22 (A), Compound 9 (B) and Compound 19 (C), is determined using BK channels heterologously expressed in Xenopus laevis oocytes.
# The electrical current through the BK channel is measured conventional two-electrode voltage clamp. BK current is activated by repeated step protocols. In brief, this protocol goes from a resting membrane potential of −40 mV lasting for 5 seconds to a depolarised step to +30 mV lasting for 1 second. The protocol was repeated continuously.
# Having reached a stable current level, Compound A (3 μM), Compound B (1 μM) and Compound C (30 μM) was added.
# T1 sequence (Q12791 whole entry): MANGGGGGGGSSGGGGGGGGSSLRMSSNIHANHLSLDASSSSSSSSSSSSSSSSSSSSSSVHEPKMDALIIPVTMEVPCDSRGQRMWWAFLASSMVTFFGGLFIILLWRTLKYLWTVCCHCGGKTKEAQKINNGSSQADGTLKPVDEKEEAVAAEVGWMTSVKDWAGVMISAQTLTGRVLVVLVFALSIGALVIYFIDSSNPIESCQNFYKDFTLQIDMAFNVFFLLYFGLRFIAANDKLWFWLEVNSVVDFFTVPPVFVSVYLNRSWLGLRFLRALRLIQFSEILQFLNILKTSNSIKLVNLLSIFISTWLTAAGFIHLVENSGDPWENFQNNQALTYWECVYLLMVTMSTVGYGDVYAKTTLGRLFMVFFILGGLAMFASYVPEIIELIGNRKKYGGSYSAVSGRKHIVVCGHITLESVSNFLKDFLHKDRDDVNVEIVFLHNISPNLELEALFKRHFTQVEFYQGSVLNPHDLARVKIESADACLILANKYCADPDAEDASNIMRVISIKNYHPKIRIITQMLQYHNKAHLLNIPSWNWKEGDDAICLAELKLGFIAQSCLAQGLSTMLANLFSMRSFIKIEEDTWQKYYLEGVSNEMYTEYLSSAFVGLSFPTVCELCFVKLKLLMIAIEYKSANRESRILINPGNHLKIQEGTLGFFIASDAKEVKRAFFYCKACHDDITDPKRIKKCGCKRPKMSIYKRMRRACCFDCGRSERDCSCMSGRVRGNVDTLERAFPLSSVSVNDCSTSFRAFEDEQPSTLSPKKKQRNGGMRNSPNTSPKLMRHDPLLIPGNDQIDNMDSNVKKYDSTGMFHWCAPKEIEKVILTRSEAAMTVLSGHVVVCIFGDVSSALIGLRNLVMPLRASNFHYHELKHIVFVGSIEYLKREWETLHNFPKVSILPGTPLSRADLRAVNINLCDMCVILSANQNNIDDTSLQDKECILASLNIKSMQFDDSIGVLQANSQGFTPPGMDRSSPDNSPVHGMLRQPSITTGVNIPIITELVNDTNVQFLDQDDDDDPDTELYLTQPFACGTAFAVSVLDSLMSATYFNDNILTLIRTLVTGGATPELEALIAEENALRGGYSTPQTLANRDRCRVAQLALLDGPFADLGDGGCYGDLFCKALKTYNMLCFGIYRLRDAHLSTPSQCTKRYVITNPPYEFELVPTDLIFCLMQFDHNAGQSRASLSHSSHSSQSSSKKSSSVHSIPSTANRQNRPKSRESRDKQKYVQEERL
structure (smiles),measurement,setting,value
"O=C(/C=C/c1ccc2ccccc2c1)Nc1cc(Cl)ccc1-c1nnn[nH]1 [Compound 9, (E)-N-[5-Chloro-2-(1H-tetrazol-5-yl)-3-phenyl]-3-naphthalen-2-yl-acrylamide]",current activated by depolarisation (BK current),1 μM,marked increase
"O=C(/C=C/c1ccc2ccccc2c1)Nc1cc(Cl)ccc1S(=O)(=O)O [Compound 19, 4-Chloro-2-((E)-3-naphthalen-2-yl-acryloylamino)-benzenesulfonic acid]",current activated by depolarisation (BK current),30 μM,marked increase
"O=C(Nc1cc(Cl)ccc1-c1nnn[nH]1)C1=Cc2cc(Cl)ccc2OC1 [Compound 22, 6-Chloro-2H-chromene-3-carboxylic acid [5-chloro-2-(1H-tetrazol-5-yl)-phenyl]-amide]",current activated by depolarisation (BK current),3 μM,marked increase
